Data published in patent publication US20250171460A1, “INDUCERS OF KLF2 AND METHODS OF USE THEREOF” (Riparian Pharmaceuticals, Inc., priority 2022, published 2025).
Read-outs that look alike come from different tables or passages of the source.

Test system: primary human endothelial cells expressing luciferase under the control of the KLF2 promoter
Assay: KLF2 Induction Cell Based Bioassay (luciferase reporter)
Settings: for EC50: Homo sapiens, Endothelial cell; for Bioactivity Bucket, S: Bioactivity of stereoisomers: S isomer
Text: In endothelial cell culture media, a stock of the highest working concentration was made at no more than 1% DMSO vehicle. The working stock was then serially diluted 1:2 to make an 11-point concentration response curve. Included in the 96-well plate were 2 reference compounds with known potencies. A DMSO column was included in the 96-well plate at the highest percent vehicle of the working stocks. The 96-well cell culture plate of primary human endothelial cells expressing luciferase under the control of the KLF2 promoter was dosed with 200 μL per well of the dilution series as well as the DMSO control column. The assay plate was incubated at 37° C. for 24 hours. The supernatant was collected at 24 hours.
20 μL of the supernatant was then placed in a 384-well plate with optical duplicates. The corners of the plate received 20 μL of the Gaussia Luciferase Enzyme positive control, as well as 20 μL of the 50 μM Coelenterizine substrate. The plate read is then calibrated using the control, and read using a Molecular Devices SpectraMax iD5, providing luminescence in relative light units (RLU). The plate reader injected 20 μL of the 50 μM Coelenterizine substrate immediately before taking the RLU measurement for each well.
The sample signals were then normalized to the average signal of the DMSO column, as well as to the maximum signal of one of the reference compounds, as shown in the equations below: […]
The EC50 of each compound is then defined as when the concentration response curve passes 0.5.

[1] = 24 h, KLF2 promoter luciferase, 24 hours, 11-point concentration response, read-out: Activity Range (EC50)

Row | Structure (SMILES) | EC50 [1] [nM] | other results
1 | COc1cccc(F)c1CNC(=O)C1(C)COc2c(oc3ccc(F)cc23)C(=O)N1CC(=O)N(C)CCO (centres unmarked) [Example 111, 9-fluoro-N-(2-fluoro-6-methoxybenzyl)-4-(2-((2-hydroxyethyl)(methyl)amino)-2-oxoethyl)-3-methyl-5-oxo-2,3,4,5-tetrahydrobenzofuro[2,3-f][1,4]oxazepine-3-carboxamide] | 51 to 500 | –
2 | COc1cccc(F)c1CNC(=O)C1(C)COc2c(oc3ccc(F)cc23)C(=O)N1CC(=O)N(C)C (centres unmarked) [Example 112, 4-(2-(dimethylamino)-2-oxoethyl)-9-fluoro-N-(2-fluoro-6-methoxybenzyl)-3-methyl-5-oxo-2,3,4,5-tetrahydrobenzofuro[2,3-f][1,4]oxazepine-3-carboxamide] | 51 to 500 | –
3 | COc1ccccc1CNC(=O)C1(C)COc2c(oc3ccc(F)cc23)C(=O)N1CC(=O)C1CC1 (centres unmarked) [Example 113, 4-(2-cyclopropyl-2-oxoethyl)-9-fluoro-N-(2-methoxybenzyl)-3-methyl-5-oxo-2,3,4,5-tetrahydrobenzofuro[2,3-f][1,4]oxazepine-3-carboxamide] | 51 to 500 | –
4 | [2H]C([2H])([2H])N(C(=O)CN1C(=O)c2oc3ccc(F)cc3c2OC[C@]1(C)C(=O)NCc1c(F)cccc1OC)C([2H])([2H])[2H] [Example 114, (R)-4-(2-(bis(methyl-d3)amino)-2-oxoethyl)-9-fluoro-N-(2-fluoro-6-methoxybenzyl)-3-methyl-5-oxo-2,3,4,5-tetrahydrobenzofuro[2,3-f][1,4]oxazepine-3-carboxamide] | 51 to 500 | –
5 | COc1cccnc1CNC(=O)[C@@]1(C)COc2c(oc3ccc(F)cc23)C(=O)N1CC(=O)N1CC(F)C1 [Example 115] | 51 to 500 | –
6 | COc1cccnc1CNC(=O)[C@@]1(C)COc2c(oc3ccc(F)cc23)C(=O)N1CC(=O)N1CC(F)(F)C1 [Example 116] | 51 to 500 | –
7 | COc1cccc(F)c1CNC(=O)[C@@]1(C)COc2c(oc3ccc(F)cc23)C(=O)N1CC(=O)N1CC[C@H]1CO [Example 117] | 51 to 500 | –
8 | COc1cccc(F)c1CNC(=O)[C@@]1(C)COc2c(oc3ccc(F)cc23)C(=O)N1Cc1nnn(CCO)n1 [Example 118] | 51 to 500 | –
9 | COc1ccc(F)cc1CNC(=O)[C@@]1(C)COc2c(oc3ccc(F)cc23)C(=O)N1Cc1nnn(CCO)n1 [Example 119] | 51 to 500 | –
10 | COc1cccnc1CNC(=O)[C@@]1(C)COc2c(oc3ccc(F)cc23)C(=O)N1Cc1cn(CCO)nn1 [Example 120, (R)-9-fluoro-4-((1-(2-hydroxyethyl)-1H-1,2,3-triazol-4-yl)methyl)-N-((3-methoxypyridin-2-yl)methyl)-3-methyl-5-oxo-2,3,4,5-tetrahydrobenzofuro[2,3-f][1,4]oxazepine-3-carboxamide] | 51 to 500 | –
11 | COc1ccccc1CNC(=O)C1(C)COc2c(oc3cc(C(=O)NC4(C)COC4)cnc23)C(=O)N1CC(=O)N(C)C (centres unmarked) [Example 121, 4-(2-(dimethylamino)-2-oxoethyl)-N3-(2-methoxybenzyl)-3-methyl-N8-(3-methyloxetan-3-yl)-5-oxo-2,3,4,5-tetrahydropyrido[2′,3′:4,5]furo[2,3-f][1,4]oxazepine-3,8-dicarboxamide] | 51 to 500 | –
12 | COCCN1C(=O)c2oc3cc(C(=O)NC4(C)COC4)cnc3c2OCC1(C)C(=O)NCc1ccccc1OC (centres unmarked) [Example 122] | 51 to 500 | –
13 | COCCN1C(=O)c2oc3cc(C(=O)NC4(C)COC4)cnc3c2OCC1(C)C(=O)NCc1c(Cl)cccc1OC (centres unmarked) [Example 123] | 51 to 500 | –
14 | COCCN1C(=O)c2oc3cc(C(=O)NC4(C)COC4)ccc3c2OC[C@@]1(C)C(=O)NCc1c(F)cccc1OC [Example 135] | – | Bioactivity Bucket, S: inactive
15 | COCCOCCn1cc(CCN2C(=O)c3oc4ccccc4c3OC[C@@]2(C)C(=O)NCc2ccccc2OC)nn1 [Example 136] | – | Bioactivity Bucket, S: inactive
16 | C#CCCN1C(=O)c2oc3ccccc3c2OC[C@@]1(C)C(=O)NCc1ccccc1OC [Example 138] | – | Bioactivity Bucket, S: inactive

Now from value to molecule, other results behind:

Row | EC50 [1] [nM] | Structure (SMILES) | other results
17 | 51 to 500 | COc1cccc(F)c1CNC(=O)C1(C)COc2c(oc3cc(-c4ncco4)cnc23)C(=O)N1CC(=O)N(C)C (centres unmarked) [Example 124, 4-(2-(dimethylamino)-2-oxoethyl)-N-(2-fluoro-6-methoxybenzyl)-3-methyl-8-(oxazol-2-yl)-5-oxo-2,3,4,5-tetrahydropyrido[2′,3′:4,5]furo[2,3-f][1,4]oxazepine-3-carboxamide] | –
18 | ≤ 50 | COc1cccnc1CNC(=O)[C@@]1(C)COc2c(oc3cc(-c4ncco4)ccc23)C(=O)N1CC(=O)N(C)C [Example 125, (R)-4-(2-(dimethylamino)-2-oxoethyl)-N-((3-methoxypyridin-2-yl)methyl)-3-methyl-8-(oxazol-2-yl)-5-oxo-2,3,4,5-tetrahydrobenzofuro[2,3-f][1,4]oxazepine-3-carboxamide] | –
19 | ≤ 50 | [2H]C([2H])([2H])N(C(=O)CN1C(=O)c2oc3cc(-c4nc(C(F)(F)F)cs4)ccc3c2OC[C@]1(C)C(=O)NCc1ncccc1OC)C([2H])([2H])[2H] [Example 126] | –
20 | ≤ 50 | [2H]C([2H])([2H])N(C(=O)CN1C(=O)c2oc3cc(-c4ncco4)ccc3c2OC[C@]1(C)C(=O)NCc1ncccc1OC)C([2H])([2H])[2H] [Example 127] | –
21 | ≤ 50 | COc1cccnc1CNC(=O)[C@@]1(C)COc2c(oc3cc(-c4nc(C(F)(F)F)cs4)ccc23)C(=O)N1CC(=O)N(C)C [Example 128] | –
22 | ≤ 50 | COc1cccnc1CNC(=O)[C@@]1(C)COc2c(oc3cc(-c4nc(C#N)co4)ccc23)C(=O)N1CC(=O)N(C)C [Example 129, (R)-8-(4-cyanooxazol-2-yl)-4-(2-(dimethylamino)-2-oxoethyl)-N-((3-methoxypyridin-2-yl)methyl)-3-methyl-5-oxo-2,3,4,5-tetrahydrobenzofuro[2,3-f][1,4]oxazepine-3-carboxamide] | EC50 (Bioactivity of stereoisomers: R isomer, read-out: Bioactivity Bucket, R): ≤ 50 nM
23 | 51 to 500 | COc1cccc(F)c1CNC(=O)C1(C)COc2c(oc3ccc(C(F)(F)F)cc23)C(=O)N1CC(=O)N(C)C (centres unmarked) [Example 131, 4-(2-(dimethylamino)-2-oxoethyl)-N-(2-fluoro-6-methoxybenzyl)-3-methyl-5-oxo-9-(trifluoromethyl)-2,3,4,5-tetrahydrobenzofuro[2,3-f][1,4]oxazepine-3-carboxamide] | –
24 | 51 to 500 | COc1cccc(F)c1CNC(=O)C1(C)COc2c(oc3ccc(C)cc23)C(=O)N1CC(=O)N(C)C (centres unmarked) [Example 133, 4-(2-(dimethylamino)-2-oxoethyl)-N-(2-fluoro-6-methoxybenzyl)-3,9-dimethyl-5-oxo-2,3,4,5-tetrahydrobenzofuro[2,3-f][1,4]oxazepine-3-carboxamide] | –
25 | 51 to 500 | COc1cccc(F)c1CNC(=O)[C@@]1(C)COc2c(oc3cc(C(F)(F)F)cnc23)C(=O)N1CC(=O)N(C)C [Example 134, (R)-4-(2-(dimethylamino)-2-oxoethyl)-N-(2-fluoro-6-methoxybenzyl)-3-methyl-5-oxo-8-(trifluoromethyl)-2,3,4,5-tetrahydropyrido[2′,3′:4,5]furo[2,3-f][1,4]oxazepine-3-carboxamide] | –
